The values below come from US12678446B2 (PFIZER INC., priority 2020, dated 2026).

In series [1] the test system is RSV (RSV A2 ECACC, 0709161v). Briefly: RSV plaque reduction assay. It is filed as cell-based, respiratory syncytial virus. The note with it: RSV A2 in Hep-G2 cells; mean of at least two experiments unless noted (n = 1); read-out: RSV A2 Plaque EC50. The method, boiled down: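 Eight-point compound dilutions were premixed with RSV A2 (100 PFU/well) and applied to confluent Hep-G2 cells for 2 h, followed by a 2-day incubation at 37° C. under compound-containing 0.8% CMC overlay. EC50 comes from immunostained plaque counts relative to untreated virus wells, averaged over ≥2 runs.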
For orientation: In a plaque reduction assay, fewer plaques than in the control indicate reduced infectivity or spread.

The next series relates to Hep-G2 cells. The experiment in a line: cell toxicity CC50. It is filed as cell-based. To be noted: mean of at least two experiments, read-out: Cell Cytotoxicity CC50.
A short description of series [2]: Liver microsomal stability, rat. It is filed as in vitro ADME. The note with it: rat liver microsomes 0.5 mg/mL, 1 μM compound, NADPH, up to 45 min. As for the experimental part:
(§1) Compounds were subjected to the following assays to investigate liver microsomal stability and hepatocyte stability.
(§2) Pooled liver microsomes were purchased from a reputable commercial supplier and stored at −80° C. prior to use. Microsomes (final protein concentration 0.5 mg/mL), 0.1 M phosphate buffer pH 7.4 and test compound (final substrate concentration 1 μM; final DMSO concentration 0.25%) were pre-incubated at 37° C. prior to the addition of NADPH (final concentration 1 mM) to initiate the reaction. The final incubation volume was 50 μL. A control incubation was included for each compound tested where 0.1 M phosphate buffer pH 7.4 was added instead of NADPH (minus NADPH). Two control compounds were included with each species. All incubations were performed singularly for each test compound. Each compound was incubated for 0, 5, 15, 30 and 45 min. The control (minus NADPH) was incubated for 45 min only. The reactions were stopped by transferring incubate into acetonitrile at the appropriate time points, in a 1:3 ratio. The termination plates are centrifuged at 3,000 rpm for 20 min at 4° C. to precipitate the protein. Following protein precipitation, the sample supernatants were combined in cassettes of up to 4 compounds, internal standard added, and samples analysed by LC-MS/MS. From a plot of ln peak area ratio (compound peak area/internal standard peak area) against time, the gradient of the line was determined. Subsequently, half-life (t1/2) and intrinsic clearance (CLint) were calculated.
(In general: Microsomes from liver hold many membrane-bound enzymes, among them those of drug oxidation.)

Series [3] in a line: Liver microsomal stability, dog. It is filed as in vitro ADME. The note with it: dog liver microsomes 0.5 mg/mL, 1 μM compound, NADPH, up to 45 min. As for the experimental part:
as §1, §2

A short description of series [4]: Liver microsomal stability, human. It is filed as in vitro ADME. To be noted: human liver microsomes 0.5 mg/mL, 1 μM compound, NADPH, up to 45 min. As for the experimental part: as §1, §2
The nature of series [5]: Hepatocyte stability, rat. It is filed as in vitro ADME. To be noted: rat hepatocytes 0.5×10^6 viable cells/mL, 3 μM compound, up to 60 min. As for the experimental part:
as §1
(§3) Hepatocyte Incubation: Experimental Procedure
(§4) Cryopreserved pooled hepatocytes were purchased from a reputable commercial supplier and stored in liquid nitrogen prior to use. Williams E media supplemented with 2 mM L-glutamine and 25 mM HEPES and test compound (final substrate concentration 3 μM; final DMSO concentration 0.25%) are pre-incubated at 37° C. prior to the addition of a suspension of cryopreserved hepatocytes (final cell density 0.5×10^6 viable cells/mL in Williams E media supplemented with 2 mM L-glutamine and 25 mM HEPES) to initiate the reaction. The final incubation volume is 500 μL. Two control compounds were included with each species, alongside appropriate vehicle control. The reactions are stopped by transferring 50 μL of incubate to 100 μL acetonitrile containing internal standard at the appropriate time points. Samples were removed at 6 time points (0, 5, 15, 30, 45 and 60 min) over the course of a 60 min experiment. The termination plates are centrifuged at 2500 rpm at 4° C. for 30 min to precipitate the protein. Following protein precipitation, the sample supernatants were combined in cassettes of up to 4 compounds and analysed using generic LC-MS/MS conditions. From a plot of ln peak area ratio (compound peak area/internal standard peak area) against time, the gradient of the line is determined. Subsequently, half-life (t½) and intrinsic clearance (CLint) were calculated.

Series [6] is described as follows: Hepatocyte stability, dog. It is filed as in vitro ADME. To be noted: dog hepatocytes 0.5×10^6 viable cells/mL, 3 μM compound, up to 60 min. As for the experimental part: as §1, §3, §4
A short description of series [7]: Hepatocyte stability, human. It is filed as in vitro ADME. To be noted: human hepatocytes 0.5×10^6 viable cells/mL, 3 μM compound, up to 60 min. As for the experimental part:
as §1, §3, §4

Series [8] in a line: Rat pharmacokinetics in vivo (IV 1 mg/kg, PO 10 mg/kg). More on the design: species or system Male rats [Sprague Dawley (SD)]. The note with it: male SD rat. As for the experimental part: The pharmacokinetics of compounds were studied in vivo in rats at doses of 1 mg/kg (IV) and 10 mg/kg (PO).
Male rats [Sprague Dawley (SD)] surgically prepared with a jugular vein cannula were treated with experimental compounds via intravenous administration (IV; n=3; 1 mg/kg) or oral administration (PO; n=3; 10 mg/kg). Compounds were formulated as a solution in 40:60 dimethylacetamide:saline (IV administration) and a solution of 10% DMSO, 10% cremaphor in water (80%) (PO administration). […] Serial blood samples were collected via the cannula at 0.02, 0.08, 0.25, 0.5, 1, 2, 4, 6, 8 and 24 h post IV dosing of compound, and at 0.08, 0.25, 0.5, 1, 2, 4, 6, 8 and 24 h post oral dosing of compound, and plasma was prepared by centrifugation and stored immediately at −80° C. Samples were subsequently thawed, prepared for analysis by protein precipitation with acetonitrile, and analysed by tandem LCMS using electrospray ionisation using a matrix-matched calibration curve. PK parameters were calculated from the resulting data.

The test system of a further series is RSV. To be noted: Antimicrobial Agents and Chemotherapy, September 2007, 3346-3353; cited from earlier work.

What is called EC50 is the concentration that produces a half-maximal response. In general, CC50 refers to the concentration giving 50% cytotoxicity. As a reminder, the Cmax is the highest concentration seen after dosing. For “(5R)-2-(3-Fluoropyridin-4-yl)-5-methyl-N-[(3S)-9-fluoro-2-oxo-5-phenyl-1,3-dihydro-1,4-benzodiazepin-3-yl]-6,7-dihydro-5H-pyrazolo[5,1-b][1,3]oxazine-3-carboxamide [Example 51]”, the EC50 in series [1] amounted to 80 nM. For the same molecule, in the series on Hep-G2 cells, the CC50 is over 25 µM. For the same molecule, the “Liver Microsomal Stability t½” value was 65.7 min in series [2], over 140 min in [3] and 62.6 min in series [4]. For the same molecule, the figures for the “Liver Hepatocyte Stability t½” value in series [5], in [6] and in series [7] were 113 min, 986 min and 88.3 min, respectively. Moreover, the Cl in series [8] (IV 1 mg/kg) was 46.4 mL/min/kg. The “IV t½” value in series [8] (IV 1 mg/kg) was determined as 28.8 min. The same molecule displayed a Vd in series [8] (IV 1 mg/kg) of 1.0 L/kg. For the same molecule, the “PO AUClast” value in [8] (PO 10 mg/kg) is 1582 ng·h/mL. Also, in series [8] (PO 10 mg/kg), the “PO t½” value is 1.1 h. The molecule also gave a F in [8] (PO 10 mg/kg vs IV 1 mg/kg) of 44.3%. The same molecule gave a Cmax in series [8] (IV 1 mg/kg, PO 10 mg/kg study) of 730 ng/mL. Also, the “C 8 h” value in series [8] (plasma at 8 h) came to 7.6 ng/mL.
Turning to `O=C(Nc1ccccc1F)N[C@H]1N=C(c2ccccc2)c2ccccc2NC1=O` [RSV604], the anti-RSV activity result in the series with RSV is listed as “sub-micromolar anti-RSV activity”.
